Tests used:
[1] = Fluorescence property test of probe with metal ion solution; conditions: Zn^2+ solution; CH3OH-H2O (v:v=1:1); FIG. 3
Protocol: (§1) The fluorescence property of the fluorescent probe compound according to the present disclosure was measured, including the following steps:
(§2) (1) Formulating a Probe Solution:
(§3) formulating a solution of 2-(7-(2,8-dimethyl quinoline-6-yl)-5,6,7,8-tetrahydro-1,8-naphthyridin-2-yl) phenol with a concentration of 100 μM in methanol, i.e. a probe solution, and stored at room temperature.
(§4) (2) Formulating Metal Ion Solutions: […]
(§5) the metal ions including: Mg^2+, Fe^2+, Cu^+, Cu^2+, Sn^4+, Co^2+, Mn^2+, K^+, Li^+, Ba^2+, Ca^2+, Cd^2+, Ni^2+, Fe^3+, Al^3+ and Zn^2+; and the respectively solutions of them were prepared from the corresponding hydrochloride salts thereof. Taking a certain amount of metal salts, dissolved in 10 mL of distilled water to formulate a 10-2 mol/L metal ion solution, and stored for later use.
(§6) (3) Fluorescence Property Test:
(§7) formulating solution to be tested: taking 0.5 mL of the formulated probe solution and 0.5 mL of the formulated metal ion solution, mixing with 4 mL solution of a CH3OH—H2O (v:v=1:1) to obtain a solution to be tested of the metal ion.
(§8) formulating blank solution: taking 0.5 mL of the formulated probe solution, mixed with solution of 2.5 mL water and 2 mL methanol.
(§9) analyzing the fluorescence intensity of solution to be tested by fluorescence spectrum, and the analysis result was shown in FIG. 3.

[2] = Fluorescence property test of probe with other metal ion solutions; conditions: Mg^2+, Fe^2+, Cu^+, Cu^2+, Sn^4+, Co^2+, Mn^2+, K^+, Li^+, Ba^2+, Ca^2+, Cd^2+, Ni^2+, Fe^3+ or Al^3+; CH3OH-H2O (v:v=1:1); FIG. 3
Protocol: as §1, §2, §3, §4, §5, §6, §7, §8, §9

[3] = Competitive experiment: Zn^2+ detection in presence of other metal ions; conditions: Zn^2+ solution (10 NM) plus other metal ion of the same concentration; FIG. 3
Protocol: In order to further verify the specificity of the zinc ion fluorescent probe compound to the zinc ion, a competitive experiment was conducted: adding the Zn^2+ solution (10 NM) into the probe solution formulated in step (1) together with a solution of any other one of the aforesaid metal ions of the same concentration; testing the effects of other competitive ions on the Zn^2+ selectivity of the zinc ion fluorescent probe compound respectively. The test results were shown in FIG. 3 (all test solution was uniformly labeled as “zinc ion fluorescent probe compound+M+Zn”).

[4] = Fluorescence titration with different concentrations of Zn^2+ (detection range and limit); conditions: Zn^2+ concentration 4×10^-6 M; FIG. 4
Protocol: Different concentrations of Zn^2+ were added into the probe solution formulated in step (1) to test the fluorescence property of the probe solution, so as to determine the detection range and detection limit for Zn^2+ of the fluorescent probe compound.

With `Cc1ccc2cc(C3CCc4ccc(-c5ccccc5O)nc4N3)cc(C)c2n1` (stereo not shown) [fluorescent probe compound, 2-(7-(2,8-dimethylquinoline-6-yl)-5,6,7,8-tetrahydro-1,8-naphthyridin-2-yl) phenol] the “fluorescence intensity change (F/F0) of the solution to be tested” value [1] was “significant fluorescence decay”, the “fluorescence intensity change (F/F0) of the solution to be tested” value [2] was “changed slightly” and the “change of Zn^2+ detection before and after addition of other competitive ions” value [3] was “almost no change”. For the same compound, the “fluorescence intensity of the compound” value [4] was “dramatic decay”.
